US8796256B2 (Janssen Pharmaceutica NV, priority 2010, dated 2014)
pEC50: −log10 of the molar value.

Target: T1, ERR1 (also known as ERR-α or ERR-1) (Homo sapiens, UniProt P11474)
T1 sequence (P11474 193-421 limits assumed): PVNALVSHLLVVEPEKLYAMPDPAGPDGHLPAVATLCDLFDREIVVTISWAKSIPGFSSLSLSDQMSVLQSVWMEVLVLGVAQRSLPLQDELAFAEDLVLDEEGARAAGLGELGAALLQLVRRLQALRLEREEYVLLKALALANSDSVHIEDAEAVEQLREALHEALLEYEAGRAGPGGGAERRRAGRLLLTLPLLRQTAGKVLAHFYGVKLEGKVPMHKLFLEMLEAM
Assay: TR-FRET assay (disruption of co-activator peptide binding to ERR1 LBD)
Format: biochemical
Conditions: 6 nM 6His-ERR1LBD, 6 nM GST-SRC-2 peptide; average of 3 independent experiments
Outline: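 Homogeneous TR-FRET measuring displacement of GST-hSRC2 co-activator peptide (6 nM) from His-tagged ERR1 LBD (6 nM), detected with α-GST Eu cryptate (30 nM) and α-His-XL665 (7.5 nM). Buffer 25 mM Tris pH 8, 2.5 mM Hepes, 20 mM KCl, 1 mM DTT, 0.05 mg/mL delipidated BSA; equilibration 4-18 h at 25° C. Hyperbolic dose-response fit, mean of 3 experiments.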

| SMILES | pEC50 |
| --- | --- |
| O=C(O)[C@@H]1CCC[C@H]1N1C(=O)S/C(=C\c2ccc3c(cnn3Cc3ccc(Cl)cc3C(F)(F)F)c2)C1=O [Compound 142, (1R,2R)-2-[(5Z)-5-({1-[4-Chloro-2-(trifluoromethyl)benzyl]-1H-indazol-5-yl}methylidene)-2,4-dioxo-1,3-thiazolidin-3-yl]cyclopentanecarboxylic acid] | 7.42 |
| O=C1S/C(=C\c2ccc3c(cnn3Cc3ccc(C(F)(F)F)cc3C(F)(F)F)c2)C(=O)N1[C@@H]1CNCC[C@@H]1F (relative stereo) [Compound 200, (5Z)-5-({1-[2,4-Bis(trifluoromethyl)benzyl]-1H-indazol-5-yl}methylidene)-3-(cis-4-fluoropiperidin-3-yl)-1,3-thiazolidine-2,4-dione] | 7.85 |
| O=C1S/C(=C\c2ccc3c(cnn3Cc3ccc(Cl)cc3C(F)(F)F)c2)C(=O)N1C1(C(=O)O)CCNCC1 [Compound 230, 4-[(5Z)-5-({1-[4-Chloro-2-(trifluoromethyl)benzyl]-1H-indazol-5-yl}methylidene)-2,4-dioxo-1,3-thiazolidin-3-yl]piperidine-4-carboxylic acid] | 7.80 |
| CN(C)CCN1C(=O)S/C(=C\c2ccc3c(cnn3Cc3ccc(F)cc3C(F)(F)F)c2)C1=O [Compound 5, (5Z)-3-[2-(Dimethylamino)ethyl]-5-[(1-{[4-fluoro-2-(trifluoromethyl)phenyl]methyl}-1H-indazol-5-yl)methylidene]-1,3-thiazolidine-2,4-dione] | 6.74 |
| COC(=O)C1(N2C(=O)S/C(=C\c3ccc4c(cnn4Cc4ccc(Cl)cc4C(F)(F)F)c3)C2=O)CCN(C)CC1 [Compound 213, Methyl 4-[(5Z)-5-({1-[4-chloro-2-(trifluoromethyl)benzyl]-1H-indazol-5-yl}methylidene)-2,4-dioxo-1,3-thiazolidin-3-yl]-1-methylpiperidine-4-carboxylate] | 7.55 |
| O=C(O)CN1C(=O)S/C(=C\c2ccc3c(cnn3Cc3ccc(F)cc3C(F)(F)F)c2)C1=O [Compound 122, [(5Z)-5-({1-[4-Fluoro-2-(trifluoromethyl)benzyl]-1H-indazol-5-yl}methylidene)-2,4-dioxo-1,3-thiazolidin-3-yl]acetic acid] | 6.50 |
| CN1[C@@H]2CC[C@H]1C[C@H](N1C(=O)S/C(=C\c3ccc4c(cnn4Cc4ccc(C(F)(F)F)cc4C(F)(F)F)c3)C1=O)C2 [Compound 62, (5Z)-5-({1-[2,4-Bis(trifluoromethyl)benzyl]-1H-indazol-5-yl}methylidene)-3-[(3-exo)-8-methyl-8-azabicyclo[3.2.1]oct-3-yl]-1,3-thiazolidine-2,4-dione] | 7.72 |
| COc1ccc(Cn2ncc3cc(/C=C4\SC(=O)N(CCN5CC[C@H](O)C5)C4=O)ccc32)c(C(F)(F)F)c1 [Compound 14, (5Z)-3-{2-[(3S)-3-Hydroxypyrrolidin-1-yl]ethyl}-5-({1-[4-methoxy-2-(trifluoromethyl)benzyl]-1H-indazol-5-yl}methylidene)-1,3-thiazolidine-2,4-dione] | 7.00 |
| O=C1S/C(=C\c2ccc3c(cnn3Cc3ccc(Cl)cc3C(F)(F)F)c2)C(=O)N1Cc1nccn1S(=O)(=O)N1CCCC1 [Compound 412, (5Z)-5-({1-[4-Chloro-2-(trifluoromethyl)benzyl]-1H-indazol-5-yl}methylidene)-3-{[1-(pyrrolidin-1-ylsulfonyl)-1H-imidazol-2-yl]methyl}-1,3-thiazolidine-2,4-dione] | 7.42 |
| O=C1S/C(=C\c2ccc3c(cnn3Cc3ccc(Cl)cc3C(F)(F)F)c2)C(=O)N1C[C@@H]1C[C@H](O)CN1 (stereo in doubt) [Compound 286, (5Z)-5-({1-[4-Chloro-2-(trifluoromethyl)benzyl]-1H-indazol-5-yl}methylidene)-3-{[(2S,4S)-4-hydroxypyrrolidin-2-yl]methyl}-1,3-thiazolidine-2,4-dione] | 6.34 |
| COC(=O)N1CCN(C(=O)CN2C(=O)S/C(=C\c3ccc4c(cnn4Cc4ccc(Cl)cc4C(F)(F)F)c3)C2=O)S1(=O)=O [Compound 340, Methyl 5-{[(5Z)-5-({1-[4-chloro-2-(trifluoromethyl)benzyl]-1H-indazol-5-yl}methylidene)-2,4-dioxo-1,3-thiazolidin-3-yl]acetyl}-1,2,5-thiadiazolidine-2-carboxylate 1,1-dioxide] | 7.28 |
| CN1CCC(=O)C(N2C(=O)S/C(=C\c3ccc4c(cnn4Cc4ccc(Cl)cc4C(F)(F)F)c3)C2=O)C1 (stereo not shown) [Compound 344, (5Z)-5-({1-[4-Chloro-2-(trifluoromethyl)benzyl]-1H-indazol-5-yl}methylidene)-3-(1-methyl-4-oxopiperidin-3-yl)-1,3-thiazolidine-2,4-dione] | 7.40 |
| O=C1S/C(=C\c2ccc3c(cnn3Cc3ccc(Cl)cc3C(F)(F)F)c2)C(=O)N1C[C@H]1CN2CCOC[C@H]2CO1 [Compound 204, (5Z)-5-({1-[4-Chloro-2-(trifluoromethyl)benzyl]-1H-indazol-5-yl}methylidene)-3-[(3R,9aS)-hexahydro-1H-[1,4]oxazino[3,4-c] [1,4]oxazin-3-ylmethyl]-1,3-thiazolidine-2,4-dione] | 7.34 |
| Cn1cncc1CN1C(=O)S/C(=C\c2ccc3c(cnn3Cc3ccc(Cl)cc3C(F)(F)F)c2)C1=O [Compound 139, (5Z)-5-({1-[4-Chloro-2-(trifluoromethyl)benzyl]-1H-indazol-5-yl}methylidene)-3-[(1-methyl-1H-imidazol-5-yl)methyl]-1,3-thiazolidine-2,4-dione] | 7.80 |
| O=C1S/C(=C\c2ccc3c(cnn3Cc3ccc(Cl)cc3C(F)(F)F)c2)C(=O)N1CCc1ccncc1 [Compound 108, (5Z)-5-({1-[4-Chloro-2-(trifluoromethyl)benzyl]-1H-indazol-5-yl}methylidene)-3-(2-pyridin-4-ylethyl)-1,3-thiazolidine-2,4-dione] | 6.99 |
| CCN1CCC(F)(CN2C(=O)S/C(=C\c3ccc4c(cnn4Cc4ccc(Cl)cc4C(F)(F)F)c3)C2=O)CC1 [Compound 306, (5Z)-5-({1-[4-Chloro-2-(trifluoromethyl)benzyl]-1H-indazol-5-yl}methylidene)-3-[(1-ethyl-4-fluoropiperidin-4-yl)methyl]-1,3-thiazolidine-2,4-dione] | 7.15 |
| O=C1S/C(=C\c2ccc3c(cnn3Cc3ccc(C(F)(F)F)cc3C(F)(F)F)c2)C(=O)N1CCn1cncn1 [Compound 66, (5Z)-5-({1-[2,4-Bis(trifluoromethyl)benzyl]-1H-indazol-5-yl}methylidene)-3-[2-(1H-1,2,4-triazol-1-yl)ethyl]-1,3-thiazolidine-2,4-dione] | 7.80 |
| O=C1S/C(=C\c2ccc3c(cnn3Cc3ccc(Cl)cc3C(F)(F)F)c2)C(=O)N1CC1CCNCC1 [Compound 130, (5Z)-5-({1-[4-Chloro-2-(trifluoromethyl)benzyl]-1H-indazol-5-yl}methylidene)-3-(piperidin-4-ylmethyl)-1,3-thiazolidine-2,4-dione] | 7.48 |
| COC(=O)CN1C(=O)S/C(=C\c2ccc3c(cnn3[C@@H]3CCc4cc(Cl)ccc43)c2)C1=O [Compound 177, Methyl [(5Z)-5-({1-[(1R)-5-chloro-2,3-dihydro-1H-inden-1-yl]-1H-indazol-5-yl}methylidene)-2,4-dioxo-1,3-thiazolidin-3-yl]acetate] | 5.22 |
